Reference: patent US12459951B2, “Compounds that interact with RAS superfamily proteins for treatment of cancers, inflammatory diseases, rasopathies, and fibrotic disease” (SHY Therapeutics, LLC, priority 2022, dated 2025)

Experiments:
[1] = system: Akt phosphorylation; experiment: Akt Phosphorylation Assay (western blot), Panc-1; type: cell-based, human; conditions: at 10 μM, * = activation
In short: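 Phospho-Akt (Ser473) was measured by western blot in lysates of KRas G12D Panc-1 cells exposed to test compound for 6 h at 37 °C, either at 10 μM final with 0.3% DMSO or as serial dilutions for IC50. One format used overnight 0.5% FBS starvation followed by a 15 min pulse of 1.5 ng/ml EGF. The other used cells in 10% FBS with no stimulation.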

[2] = system: IL6; experiment: IL-6 Quantification Assay (ELISA), LPS-stimulated RAW 264.7; type: cell-based; set-up: inhibition: dose or concentration left out as unconfirmed; conditions: Mus musculus, RAW264.7, read-out: IL-6: % inh.
[3] = system: TNF-alpha; experiment: TNF-alpha Quantification Assay (ELISA), LPS-stimulated RAW 264.7; type: cell-based; conditions: Mus musculus, RAW264.7; at 10 μM; read-out: TNFα: % inh.
[4] = system: KRas Q61H mutant; experiment: Ras GTP Binding Domain Inhibition Assay (Ras Superfamily Assay); conditions: 20 μM compound; for KRas Q61H mutant + SOS: % inh.: with SOS; for KRas Q61H mutant: % inh.: without SOS
In short: (§1)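 Binding of 100 nM fluorescent GTP (Cy3 or Cy5, 45 min, room temperature) was read after washes from plate-captured His-tagged protein. Beforehand, compounds at 20 μM or in dilution series for IC50 sat 3 h on the protein in Tris buffer pH 7.4 or 7.0 with 1% DMSO, Sos GEF optionally added for the last hour.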

[5] = target: T1, Rac-1 (Homo sapiens, UniProt P63000); experiment: as above; conditions: read-out: Rac-1: % inh.
T1 construct: made in house
In short: as §1

[6] = target: T2, Rho-A (Homo sapiens, UniProt P61586); experiment: as above; conditions: read-out: Rho-A: % inh..
T2 construct: made in house
In short: as §1

T2 sequence (P61586 whole entry): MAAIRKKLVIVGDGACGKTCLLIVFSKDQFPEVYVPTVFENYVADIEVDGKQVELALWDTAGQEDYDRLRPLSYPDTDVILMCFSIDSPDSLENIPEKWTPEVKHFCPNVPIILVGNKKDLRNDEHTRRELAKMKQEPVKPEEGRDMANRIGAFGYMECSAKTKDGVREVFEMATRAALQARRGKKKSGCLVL

Row | KRas Q61H mutant + SOS: % inh. [4] | KRas Q61H mutant: % inh. [4] | inhibition at 20 µM [5] [%] | inhibition at 20 µM [6] [%] | SMILES | % inh of Akt phosphorylation in Panc-1 [1] | inhibition [2] [%] | inhibition at 10 µM [3] [%] | inhibition at 10 µM ([2]; at 10 μM) [%]
1 | 0 (0 = 0% inhibition) | 0 (0 = 0% inhibition) | 0 | 1 to 25 | COCCNc1nc(-c2nccn2C)nn2cc(-c3cccc(OC)c3Cl)c(-c3ccccc3)c12 [Compound 29, 6-(2-Chloro-3-methoxyphenyl)-N-(2-methoxyethyl)-2-(1-methyl-1H-imidazol-2-yl)-5-phenylpyrrolo[2,1-f][1,2,4]triazin-4-amine] | D (85-100% inhibition) | 75 to 100 | 75 to 100 | –
2 | 0 (0 = 0% inhibition) | 0 (0 = 0% inhibition) | 0 | 1 to 25 | COCCCNc1nc(-c2nccn2C)nn2cc(-c3cccc(OC)c3Cl)c(-c3ccccc3)c12 [Compound 30, 6-(2-Chloro-3-methoxyphenyl)-N-(3-methoxypropyl)-2-(1-methyl-1H-imidazol-2-yl)-5-phenylpyrrolo[2,1-f][1,2,4]triazin-4-amine] | D (85-100% inhibition) | 75 to 100 | 75 to 100 | –
3 | A (A = 1-25% inhibition) | 0 (0 = 0% inhibition) | 1 to 25 | 1 to 25 | COc1cccc(-c2cn3nc(-c4nccn4C)nc(N[C@H]4C[C@@H](OC)C4)c3c2-c2ccccc2)c1Cl [Compound 31, 6-(2-Chloro-3-methoxyphenyl)-N-((1s,3s)-3-methoxycyclobutyl)-2-(1-methyl-1H-imidazol-2-yl)-5-phenylpyrrolo[2,1-f][1,2,4]triazin-4-amine] | D (85-100% inhibition) | 75 to 100 | 75 to 100 | –
4 | A (A = 1-25% inhibition) | A (A = 1-25% inhibition) | 0 | 1 to 25 | COc1cccc(-c2cn3nc(-c4nccn4C)nc(N[C@H]4C[C@H](OC)C4)c3c2-c2ccccc2)c1Cl [Compound 32, 6-(2-Chloro-3-methoxyphenyl)-N-((1r,3r)-3-methoxycyclobutyl)-2-(1-methyl-1H-imidazol-2-yl)-5-phenylpyrrolo[2,1-f][1,2,4]triazin-4-amine] | D (85-100% inhibition) | 75 to 100 | 75 to 100 | –
5 | A (A = 1-25% inhibition) | A (A = 1-25% inhibition) | 0 | 1 to 25 | COCCNc1nc(-c2nccn2C)nn2cc(-c3ccn(C(C)C)n3)c(C(C)C)c12 [Compound 35, 5-Isopropyl-6-(1-isopropyl-1H-pyrazol-3-yl)-N-(2-methoxyethyl)-2-(1-methyl-1H-imidazol-2-yl)pyrrolo[2,1-f][1,2,4]triazin-4-amine] | 0 (0% inhibition) | 25 to 49 | 0 | –
6 | 0 (0 = 0% inhibition) | 0 (0 = 0% inhibition) | 0 | 1 to 25 | COc1cccc(Nc2nc(-c3nccn3C)nn3ccc(C)c23)n1 [Compound 38, N-(6-Methoxypyridin-2-yl)-5-methyl-2-(1-methyl-1H-imidazol-2-yl)pyrrolo[2,1-f][1,2,4]triazin-4-amine] | 0 (0% inhibition) | 25 to 49 | 1 to 24 | –
7 | A (A = 1-25% inhibition) | 0 (0 = 0% inhibition) | 1 to 25 | 1 to 25 | COc1cccc(Nc2nc(-c3nccn3C)nn3ccc(-c4ccccc4)c23)n1 [Compound 40, N-(6-Methoxypyridin-2-yl)-2-(1-methyl-1H-imidazol-2-yl)-5-phenylpyrrolo[2,1-f][1,2,4]triazin-4-amine] | 0 (0% inhibition) | 75 to 100 | 25 to 49 | –
8 | 0 (0 = 0% inhibition) | 0 (0 = 0% inhibition) | 0 | 0 | Cn1ccnc1-c1nc(OCCN2CCCC2)c2c(-c3ccccc3)ccn2n1 [Compound 41, 2-(1-Methyl-1H-imidazol-2-yl)-5-phenyl-4-(2-(pyrrolidin-1-yl)ethoxy)pyrrolo[2,1-f][1,2,4]triazine] | A* (1-25% activation) | 1 to 24 | 1 to 24 | –
9 | B (B = 26-49% inhibition) | B (B = 26-49% inhibition) | 0 | 1 to 25 | COc1cccc(-c2cn3nc(-c4nccn4C)nc(N[C@H]4C[C@H](OC)C4)c3c2-c2ccccc2)c1F [Compound 42, 6-(2-Fluoro-3-methoxyphenyl)-N-((1r,3r)-3-methoxycyclobutyl)-2-(1-methyl-1H-imidazol-2-yl)-5-phenylpyrrolo[2,1-f][1,2,4]triazin-4-amine] | D (85-100% inhibition) | 75 to 100 | 75 to 100 | –
10 | D (D = 76-100% inhibition) | D (D = 76-100% inhibition) | 26 to 49 | 1 to 25 | COCCO[C@H]1C[C@H](Nc2nc(-c3nccn3C)nn3cc(-c4cccc(OC)c4F)c(-c4ccccc4)c23)C1 [Compound 44, 6-(2-Fluoro-3-methoxyphenyl)-N-((1r,3r)-3-(2-methoxyethoxy)cyclobutyl)-2-(1-methyl-1H-imidazol-2-yl)-5-phenylpyrrolo[2,1-f][1,2,4]triazin-4-amine] | B (26-49% inhibition) | 25 to 49 | 1 to 24 | –
11 | D (D = 76-100% inhibition) | D (D = 76-100% inhibition) | 50 to 75 | 50 to 75 | COc1cccc(-c2cn3nc(-c4nccn4C)nc(N[C@H]4C[C@H](OC)C4)c3c2-c2ccccn2)c1F [Compound 45, 6-(2-Fluoro-3-methoxyphenyl)-N-((1r,3r)-3-methoxycyclobutyl)-2-(1-methyl-1H-imidazol-2-yl)-5-(pyridin-2-yl)pyrrolo[2,1-f][1,2,4]triazin-4-amine] | 0 (0% inhibition) | – | 75 to 100 | 75 to 100
12 | A (A = 1-25% inhibition) | A (A = 1-25% inhibition) | 0 | 1 to 25 | COc1cccc(-c2cn3nc(-c4nccn4C)nc(N[C@H]4C[C@H](OC)C4)c3c2-c2ccn(C)n2)c1F [Compound 47, 6-(2-Fluoro-3-methoxyphenyl)-N-((1r,3r)-3-methoxycyclobutyl)-2-(1-methyl-1H-imidazol-2-yl)-5-(1-methyl-1H-pyrazol-3-yl)pyrrolo[2,1-f][1,2,4]triazin-4-amine] | C* (46-84% activation) | 0 | 1 to 24 | –
13 | D (D = 76-100% inhibition) | D (D = 76-100% inhibition) | 50 to 75 | 76 to 100 | COc1cc(Nc2nc(-c3nccn3C)nn3cc(-c4cccnc4)c(C)c23)ncn1 [Compound 48, N-(6-Methoxypyrimidin-4-yl)-5-methyl-2-(1-methyl-1H-imidazol-2-yl)-6-(pyridin-3-yl)pyrrolo[2,1-f][1,2,4]triazin-4-amine] | D* (85-100% activation) | 1 to 24 | 1 to 24 | –
14 | D (D = 76-100% inhibition) | D (D = 76-100% inhibition) | 26 to 49 | 26 to 49 | COc1cc(Nc2nc(-c3nccn3C)nn3cc(-c4ccncc4)c(C)c23)ncn1 [Compound 49, N-(6-Methoxypyrimidin-4-yl)-5-methyl-2-(1-methyl-1H-imidazol-2-yl)-6-(pyridin-4-yl)pyrrolo[2,1-f][1,2,4]triazin-4-amine] | D* (85-100% activation) | 1 to 24 | 1 to 24 | –
15 | D (D = 76-100% inhibition) | D (D = 76-100% inhibition) | 26 to 49 | 50 to 75 | COc1cc(-c2cn3nc(-c4nccn4C)nc(Nc4cc(OC)ncn4)c3c2C)ccn1 [Compound 50, 6-(2-Methoxypyridin-4-yl)-N-(6-methoxypyrimidin-4-yl)-5-methyl-2-(1-methyl-1H-imidazol-2-yl)pyrrolo[2,1-f][1,2,4]triazin-4-amine] | D* (85-100% activation) | 1 to 24 | 0 | –
